# Measured values as given in US8173131B2, “Compositions and methods for modulating RSV infection and immunity” (PerkinElmer Health Sciences, Inc., priority 2000, dated 2012).
# B1: C10: macrophage inflammatory protein-related protein-1 (C10), chemokine (protein)
# chain: GLIQEMEKEDRRYNPPIIHQGFQDTSSDCCFSYATQIPCKRFIYYFPTSGGCIKPGIIFISRRGTQVCADPSDRRVQRCLSTLKQGPRSGNKVIA
# B2: MIP-2: chemokine (protein)
# chain: AVVASELRCQCLKTLPRVDFKNIQSLSVTPPGPHCAQTEVIATLKGGQKVCLDPEAPLVQKIIQKILNKGKAN
# B3: KC: growth regulated oncogene-α, KC, chemokine (protein, UniProt P12850 25-96, looked up)
# Growth-regulated alpha protein: APIANELRCQCLQTMAGIHLKNIQSLKVLPSGPHCTQTEVIATLKNGREACLDPEAPLVQKIVQKMLKGVPK
# B4: IP-10: chemokine (protein, UniProt P17515 22-98, looked up)
# C-X-C motif chemokine 10: IPLARTVRCNCIHIDDGPVRMRAIGKLEIIPASLSCPRVEIIATMKKNDEQRCLNPESKTIKNLMKAFSQKRSKRAP
# Experiments:
# CD3+ BAL cells = test: Intracellular cytokine expression by CD3+ T cells following in vivo peptide treatment; set-up: species or system BALB/c mice
# Procedure: (§1) On day −1, prior to RSV infection, mice were i.p. treated (0.1 ml/mouse) with 100 μM of G glycoprotein peptides RT33 (CWAIC) (SEQ ID NO: 12), RT34 (lacks the CX3C motif) or peptides with changes in the CX3C motif (Δ+1, Δ−1, EYp1). Control mice were treated with PBS containing a similar dilution of DMSO used to solubilize the peptides.
# Intracellular cytokine staining was modified for microculture staining as described (55, 57). Briefly, BAL cells were incubated in PBS containing Golgi Stop (Pharmingen) for 3 h at 37° C. to allow for accumulation of intracellular cytokines. The cells were washed in PBS containing 1% bovine serum albumin, blocked with 10% normal mouse sera diluted in PBS containing 1% bovine serum albumin, and stained (4° C., 30 min) with an appropriate dilution of anti-CD3 antibody, fixed and permeabilized in Cytofix/Cytoperm (Pharmingen). The cells were washed in Cytofix/Cytoperm buffer and stained (4° C., 30 min) with appropriate dilutions of anti-IL-2 (JES6-5H4), anti-IL-4 (BVD4-1D11), anti-IL-5 (TRFK5), IL-10 (JES3-16E3), anti-IFNγ (XMG1.2), or anti-TNFα (MP6-XT22) antibodies (Pharmingen) diluted in Cytofix/Cytoperm. Extra- and intracellular staining was analyzed by flow cytometry using a FACScan and Cell Quest software (Becton Dickinson, San Diego, Calif.). Total cytokine expression by CD3+ T cells was determined from the percent cytokine expression of CD3+ T cells and total number of cells recovered. The total number of CD3+ BAL cells expressing a particular cytokine was determined by multiplying the total number of BAL cells by the percent CD3+ cells expressing that particular cytokine.
# [1] = test system: bronchoalveolar leukocytes (BAL); test: BAL cell infiltration and cell types in RSV-infected mice following in vivo peptide treatment; set-up: species or system BALB/c mice; settings: in words
# Description: Total pulmonary leukocyte trafficking following treatment of mice with peptides containing a CX3C motif (RT33 and EYp1) (A) or peptides without a CX3C motif (RT34, Δ+1, Δ−1)(B).
# (§2) Flow cytometry results following treatment (d−1) of mice with PBS, RT33, RT34, Δ+1, Δ−1 and EYp1 peptides (100 μm). BAL cells were stained with antibodies against B220^+ (A, D, G), CD3^+ (B, E, H) and CD11b^+ (C, F, I) cells. Data is expressed as the total BAL cells/lung±SEM at days 3, 5, 7 and 14 post-infection. A representative experiment from 3 independent experiments is shown.
# as §2, with “NK (DX5^+)” for “B220^+”, “(A, C, E) and PMN (RB6-8C5^+) cells (B,” for “(A,”, “F).” for “G), CD3^+ (B, E, H) and CD11b^+ (C, F, I) cells.”
# as §1
# Mice were anesthetized with Avertin and exsanguinated by severing the right caudal artery. Bronchoalveolar leukocyte (BAL) cells were harvested by lung lavage with PBS containing 1% bovine serum albumin (BSA, Sigma). The procedure used for extracellular staining of BAL cells was modified for microculture staining as described (55,57). Briefly, BAL cells were washed in Dulbecco's PBS (GIBCO) containing 1% bovine serum albumin (Sigma), blocked with 10% normal mouse sera diluted in PBS containing 1% bovine serum albumin, and then stained (4° C., 30 min) with an appropriate dilution of FITC-conjugated or PE-conjugated anti-CD3ε (145-2C11), anti-CD45R/B220 (RA3-6B2), anti-CD8 (Ly-2), anti-neutrophil (PMN) (RB6-8C5), anti-CD11b (M1/70) and isotype antibody controls (all from Pharmingen, San Diego, Calif.).
# [2] = test system: G glycoprotein binding to 293-CX3CR1 cells; set-up: species or system human; settings: chemokine 10 μM
# Procedure: All binding studies were done on ice and either G glycoprotein or human Fkn (R&D Diagnostics, Minneapolis, Minn.) were diluted between 1 nM-100 nM in PBS (GIBCO) containing 1% bovine serum albumin (Sigma) and incubated with the 293-CX3CR1 cells or 293 control cells for 30 min at 4° C. […] Without washing, 100 pM of either Fkn or G glycoprotein was added and incubated for 30 min at 4° C. The cells were washed, blocked with FcγRIII blocking antibody (HB197) for 30 min on ice, washed and stained as appropriate with either an anti-G glycoprotein monoclonal antibody cocktail (132-5B, 132-5G, 130-2G, 232-IF) or a biotinylated anti-G glycoprotein monoclonal antibody cocktail (130-2G, 131-2G) or anti-Fkn monoclonal antibody (51637.11; R&D Diagnostics). Concentrations of 1 μg of anti-G glycoprotein monoclonal antibody (131-2G)^34, rabbit anti-CX3CR1 sera^33, and anti-CX3CR1 monoclonal antibody containing 10 μg/ml heparin were used in all experiments. […] Staining was detected with absorbed FITC-goat anti-mouse (H & L chain) monoclonal antibody (PharMingen, San Diego, Calif.) or streptavidin-PE (PharMingen) using flow cytometry (FACScan, Becton-Dickinson, Mountain View, Calif.). A 76 amino acid ^125I-Fkn polypeptide comprising the […] (NEN, Boston, Mass.) was used in radioligand studies^33. As a control, the void volume following purified G glycoprotein passaged over an anti-G glycoprotein antibody (130-2G) affinity column was examined by flow cytometry for binding to either 293 or 293-CX3CR1 cells.
# For peptide inhibition studies, a series of G glycoprotein peptides were identified in the amino acid sequence of the A2 strain of RSV (GENBANK, attachment protein locus 1912305, Table 4). The peptides were synthesized using a simultaneous, multiple solid-phase peptide synthesis method on a peptide synthesizer (Perkin-Elmer Applied Biosystems, Berkeley, Calif.), and tested for homogeneity by reverse-phase liquid chromatography and capillary electrophoresis (www.biotech.cdc.gov/protein/methods). Inhibition assays were performed as described for the binding studies above.
# To determine if G glycoprotein bound 293-CX3CR1 cells via CX3CR1, the ability of four reagents (anti-CX3CR1 rabbit antiserum, anti-CX3CR1 monoclonal antibody (2A9-1), Fkn and a 76 amino acid 125-I-Fkn polypeptide containing the CX3C domain) that bind to CX3CR1 to block G glycoprotein binding to 293-CX3CR1 cells was examined. In addition, to determine if binding of G glycoprotein to 293-CX3CR1 cells was dependent upon the CX3C motif, G glycoprotein peptides with a single residue insertion (Δ+1) or deletion (Δ−1) in the CX3C motif and also peptides that lacked or included the CX3C motif (Table 4) were generated. This panel of peptides was analyzed for their ability to block G glycoprotein or Fkn binding to 293-CX3CR1 cells.
# Inhibition of Fkn and G glycoprotein binding to 293-CX3CR1 cells by treatment with monoclonal antibodies to G glycoprotein or CX3CR1, or treatment with G glycoprotein, Fkn, or G glycoprotein peptides in the presence or absence of heparin as described in Methods. […] The concentration of G glycoprotein was estimated using a molecular weight of 90 kD.
# [3] = target: T1, Fkn binding to 293-CX3CR1 cells (Homo sapiens, UniProt P49238); settings: chemokine 10 μM
# T1 construct: host or cells: HEK 293 cells stably transfected with CX3CR1
# T1 sequence (P49238 whole entry): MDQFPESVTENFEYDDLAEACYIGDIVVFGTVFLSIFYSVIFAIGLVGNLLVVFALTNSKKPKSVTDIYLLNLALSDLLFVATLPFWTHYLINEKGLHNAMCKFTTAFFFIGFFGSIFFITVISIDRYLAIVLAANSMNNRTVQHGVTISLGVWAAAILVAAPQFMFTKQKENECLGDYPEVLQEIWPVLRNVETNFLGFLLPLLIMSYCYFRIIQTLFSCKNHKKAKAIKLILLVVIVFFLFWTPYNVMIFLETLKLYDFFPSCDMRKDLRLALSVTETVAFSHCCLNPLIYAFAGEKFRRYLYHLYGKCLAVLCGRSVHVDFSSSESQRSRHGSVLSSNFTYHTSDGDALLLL
molecule,measurement,setting,value
"TCAAACKRIPNKK [EYp1, 13-mer G glycoprotein peptide variant of RT33 with CAAAC motif]",Total IC cytokine Expressing CD3^+ BAL cells (×10^3) ± SEM: IFNγ,CD3+ BAL cells; day 3 pi,32 ± 7.3 ×10^3
same,Total IC cytokine Expressing CD3^+ BAL cells (×10^3) ± SEM: IL-4,CD3+ BAL cells; day 3 pi,32 ± 7.2 ×10^3
same,Total IC cytokine Expressing CD3^+ BAL cells (×10^3) ± SEM: IL-5,CD3+ BAL cells; day 3 pi,34 ± 7.7 ×10^3
same,Total IC cytokine Expressing CD3^+ BAL cells (×10^3) ± SEM: IL-6,CD3+ BAL cells; day 3 pi,35 ± 8.0 ×10^3
same,Total IC cytokine Expressing CD3^+ BAL cells (×10^3) ± SEM: TNFα,CD3+ BAL cells; day 3 pi,36 ± 8.1 ×10^3
same,Total IC cytokine Expressing CD3^+ BAL cells (×10^3) ± SEM: IL-2,"CD3+ BAL cells; day 3 pi, peptide 24 hours prior to RSV infection",26 ± 6.0 ×10^3
same,Total IC cytokine Expressing CD3^+ BAL cells (×10^3) ± SEM: IFNγ,CD3+ BAL cells; day 5 pi,26 ± 5.4 ×10^3
same,Total IC cytokine Expressing CD3^+ BAL cells (×10^3) ± SEM: IL-2,CD3+ BAL cells; day 5 pi,17 ± 3.6 ×10^3
same,Total IC cytokine Expressing CD3^+ BAL cells (×10^3) ± SEM: IL-4,CD3+ BAL cells; day 5 pi,28 ± 5.6 ×10^3
same,Total IC cytokine Expressing CD3^+ BAL cells (×10^3) ± SEM: IL-5,CD3+ BAL cells; day 5 pi,32 ± 6.5 ×10^3
same,Total IC cytokine Expressing CD3^+ BAL cells (×10^3) ± SEM: IL-6,CD3+ BAL cells; day 5 pi,19 ± 7.4 ×10^3
same,Total IC cytokine Expressing CD3^+ BAL cells (×10^3) ± SEM: TNFα,CD3+ BAL cells; day 5 pi,41 ± 8.4 ×10^3
same,Total IC cytokine Expressing CD3^+ BAL cells (×10^3) ± SEM: IFNγ,CD3+ BAL cells; day 7 pi,18 ± 2.6 ×10^3
same,Total IC cytokine Expressing CD3^+ BAL cells (×10^3) ± SEM: IL-2,CD3+ BAL cells; day 7 pi,7.8 ± 1.1 ×10^3
same,Total IC cytokine Expressing CD3^+ BAL cells (×10^3) ± SEM: IL-4,CD3+ BAL cells; day 7 pi,12 ± 1.6 ×10^3
same,Total IC cytokine Expressing CD3^+ BAL cells (×10^3) ± SEM: IL-5,CD3+ BAL cells; day 7 pi,20 ± 2.8 ×10^3
same,Total IC cytokine Expressing CD3^+ BAL cells (×10^3) ± SEM: IL-6,CD3+ BAL cells; day 7 pi,17 ± 2.4 ×10^3
same,Total IC cytokine Expressing CD3^+ BAL cells (×10^3) ± SEM: TNFα,CD3+ BAL cells; day 7 pi,6.8 ± 2.8 ×10^3
same,Total IC cytokine Expressing CD3^+ BAL cells (×10^3) ± SEM: IFNγ,CD3+ BAL cells; day 14 pi,5.3 ± 0.3 ×10^3
same,Total IC cytokine Expressing CD3^+ BAL cells (×10^3) ± SEM: IL-2,CD3+ BAL cells; day 14 pi,5.1 ± 0.3 ×10^3
same,Total IC cytokine Expressing CD3^+ BAL cells (×10^3) ± SEM: IL-4,CD3+ BAL cells; day 14 pi,5.4 ± 0.3 ×10^3
same,Total IC cytokine Expressing CD3^+ BAL cells (×10^3) ± SEM: IL-5,CD3+ BAL cells; day 14 pi,7.7 ± 0.5 ×10^3
same,Total IC cytokine Expressing CD3^+ BAL cells (×10^3) ± SEM: IL-6,CD3+ BAL cells; day 14 pi,5.0 ± 0.3 ×10^3
same,Total IC cytokine Expressing CD3^+ BAL cells (×10^3) ± SEM: TNFα,CD3+ BAL cells; day 14 pi,6.8 ± 0.5 ×10^3
same,"total BAL numbers compared to mice treated with RT34, Δ−1 or PBS",[1]; day 3 pi,reduced BAL numbers
same,"numbers of BAL cell types (B220+, CD3+, CD11b+, NK, PMN)","[1]; days 3, 5, 7 and 14 pi",increased numbers of CD3+ cells on days 5 and 7 pi
same,course of BAL numbers,[1]; from day 3 to day 14 pi,increased
B1,Range of Inhibition (%) of G glycoprotein binding,[2],5-8%
same,Range of Inhibition (%) of Fkn binding,[3],4-8%
B2,Range of Inhibition (%) of G glycoprotein binding,[2],2-8%
same,Range of Inhibition (%) of Fkn binding,[3],0-4%
B3,Range of Inhibition (%) of G glycoprotein binding,[2],0-6%
same,Range of Inhibition (%) of Fkn binding,[3],4-6%
B4,Range of Inhibition (%) of G glycoprotein binding,[2],0-4%
same,Range of Inhibition (%) of Fkn binding,[3],0-6%
